Experimental data as given in ChEMBL document CHEMBL4024722, “Discovery of acylguanidine oseltamivir carboxylate derivatives as potent neuraminidase inhibitors” (Bioorg Med Chem, 2017).

How the values were obtained:
[1] = Inhibition of Influenza A virus (A/Puerto Rico/8/1934(H1N1)) neuraminidase H259Y mutant using 4-MU-NANA as substrate preincubated for 10 mins followed by substrate addition measured after 1 hr by fluorescence assay
[2] = Antiviral activity against Influenza A virus (A/Hong Kong/498/97(H3N2)) harboring wild type neuraminidase infected in MDCK cells assessed as inhibition of viral replication preincubated for 36 hrs followed by reinfection in new monolayer of MDCK cells every 1 hr for 24 hrs; format: functional, cell-based
Influenza A virus [3] = experiment: Antiviral activity against Influenza A virus (A/Puerto Rico/8/1934(H1N1)) harboring wild type neuraminidase assessed as inhibition of viral replication preincubated for 36 hrs followed by reinfection in new monolayer of MDCK cells every 1 hr for 12 hrs; format: functional
Influenza A virus [4] = format: functional, cell-based, A/Puerto Rico/8/1934(H1N1)
in vitro = details: dog, MDCK cells

CCC(CC)O[C@@H]1C=C(C(=O)O)C[C@H](NC(=N)NC(=O)Cc2ccc(C)cc2)[C@H]1NC(C)=O
IC50 [1]: 0.132 µM

CCC(CC)O[C@@H]1C=C(C(=O)O)C[C@H](NC(=N)NC(=O)CCc2cccnc2)[C@H]1NC(C)=O
IC50 [1]: 0.0211 µM

C=CCCC(=O)NC(=N)N[C@H]1CC(C(=O)O)=C[C@@H](OC(CC)CC)[C@@H]1NC(C)=O
EC50 [2]: 0.00945 µM
EC50 (Influenza A virus [3]): 0.0245 µM
EC50 (Influenza A virus [4]): 0.00718 µM
selectivity ratio (in vitro): > 139
IC50 [1]: 0.0305 µM

CCC(CC)O[C@@H]1C=C(C(=O)O)C[C@H](NC(=N)NC(=O)Cc2ccc(Br)cc2)[C@H]1NC(C)=O
EC50 [2]: 0.00258 µM
EC50 (Influenza A virus [3]): 0.0129 µM
EC50 (Influenza A virus [4]): 0.0691 µM
selectivity ratio (in vitro): > 14.5
IC50 [1]: 0.0406 µM

CCC(CC)O[C@@H]1C=C(C(=O)O)C[C@H](NC(=N)NC(=O)c2cccc(C)c2)[C@H]1NC(C)=O
IC50 [1]: > 1 µM

CCC(=O)NC(=N)N[C@H]1CC(C(=O)O)=C[C@@H](OC(CC)CC)[C@@H]1NC(C)=O
EC50 [2]: 0.0053 µM
EC50 (Influenza A virus [3]): 0.0239 µM
EC50 (Influenza A virus [4]): 0.0373 µM
selectivity ratio (in vitro): > 26.8
IC50 [1]: 0.0742 µM

CCC(CC)O[C@@H]1C=C(C(=O)O)C[C@H](NC(=N)NC(=O)c2ccc([N+](=O)[O-])cc2)[C@H]1NC(C)=O
EC50 [2]: 0.0392 µM
EC50 (Influenza A virus [3]): 0.16 µM
EC50 (Influenza A virus [4]): 0.136 µM
selectivity ratio (in vitro): > 7.4
IC50 [1]: 0.0578 µM

CCCCC(=O)NC(=N)N[C@H]1CC(C(=O)O)=C[C@@H](OC(CC)CC)[C@@H]1NC(C)=O
IC50 [1]: 0.163 µM

CCC(CC)O[C@@H]1C=C(C(=O)O)C[C@H](NC(=N)NC(=O)Cc2ccccc2C)[C@H]1NC(C)=O
IC50 [1]: 0.225 µM

CCC(CC)O[C@@H]1C=C(C(=O)O)C[C@H](NC(=N)NC(=O)CCc2ccc(OC)c(OC)c2)[C@H]1NC(C)=O
EC50 [2]: 0.00562 µM
EC50 (Influenza A virus [3]): 0.0201 µM
EC50 (Influenza A virus [4]): 0.023 µM
selectivity ratio (in vitro): > 43.4
IC50 [1]: 0.0145 µM

CCC(CC)O[C@@H]1C=C(C(=O)O)C[C@H](NC(=N)NC(=O)CC(C)C)[C@H]1NC(C)=O
IC50 [1]: 0.445 µM

CCCC(=O)NC(=N)N[C@H]1CC(C(=O)O)=C[C@@H](OC(CC)CC)[C@@H]1NC(C)=O
IC50 [1]: 0.133 µM

CCC(CC)O[C@@H]1C=C(C(=O)O)C[C@H](NC(=N)NC(=O)C(C)C)[C@H]1NC(C)=O
IC50 [1]: 0.132 µM

CCC(CC)O[C@@H]1C=C(C(=O)O)C[C@H](NC(=N)NC(=O)CCCc2ccccc2)[C@H]1NC(C)=O
IC50 [1]: 0.221 µM

CCC(CC)O[C@@H]1C=C(C(=O)O)C[C@H](NC(=N)NC(=O)c2ccncc2)[C@H]1NC(C)=O
IC50 [1]: 0.0368 µM

CCC(CC)O[C@@H]1C=C(C(=O)O)C[C@H](NC(=N)NC(=O)CCc2ccccc2)[C@H]1NC(C)=O
IC50 [1]: 0.114 µM

CCC(CC)O[C@@H]1C=C(C(=O)O)C[C@H](NC(=N)NC(=O)Cc2ccc3ccccc3c2)[C@H]1NC(C)=O
EC50 [2]: 0.00395 µM
EC50 (Influenza A virus [3]): 0.00845 µM
EC50 (Influenza A virus [4]): 0.0113 µM
selectivity ratio (in vitro): > 88.6
IC50 [1]: 0.0667 µM
